# Test results taken from US20220296555A1, “ACYLATED ACTIVE AGENTS AND METHODS OF THEIR USE FOR THE TREATMENT OF METABOLIC DISORDERS AND NONALCOHOLIC FATTY LIVER DISEASE” (Flagship Pioneering Innovations V, Inc., priority 2019, published 2022).
# Experiments:
# [1] = Assay 2. Stability in Simulated Intestinal Fluid (SIF); format: in vitro ADME; conditions: SIF pH 6.7 with pancreatin, 1 μM, 37° C.
# Protocol: Assay 2. Stability of conjugates in Simulated Intestinal Fluid (SIF). This assay was used to assess the stability of an acylated cinnamic acid in a small intestine.
# Phosphate buffer was prepared by dissolving 0.42 g of sodium hydroxide pellets and 3.95 g of monobasic sodium phosphate monohydrate and 6.19 g of sodium chloride in ultrapure water (MilliQ®, Millipore Sigma, Darmstadt, Germany). The pH was adjusted to 6.7 using aq. HCl and aq. NaOH, as necessary, and the solution was diluted with ultrapure water to produce 1 L of the pH 6.7 buffer.
# 112 mg FaSSIF powder (Biorelevant™, London, UK) was dissolved in 50 mL of the pH 6.7 buffer. 2 to 3 mL of the resulting solution were then added to 500 mg pancreatin (Millipore Sigma, Darmstadt, Germany). The resulting mixture was agitated by finger tapping the vessel containing the mixture until milky suspension formed. At this time, the remainder of the 50 mL FaSSiF/pH 6.7 buffer solution was added. The resulting suspension was flipped upside down 10 times to produce SIF, which was used fresh.
# A test compound was dissolved in DMSO stock to 1 mM. An aliquot of the DMSO stock solution was removed and diluted in the SIF media in 15 mL falcon tubes to produce a mixture with a tested compound concentration of 1 μM. […] The resulting samples were analyzed by LC/MS to determine degradation rates
# [2] = Assay 3. In vitro Colonic Material Stability Assay; format: in vitro ADME; conditions: colonic material slurry, anaerobic, 1 or 10 μM
# Protocol: Assay 3. In vitro Colonic Material Stability Assay. This assay was used to assess the stability of an acylated cinnamic acid in a large intestine. All experiments were performed in an anaerobic chamber containing 90% nitrogen, 5% hydrogen and 5% carbon dioxide. Colonic material was resuspended as a slurry (15% w/v final concentration) in pre-reduced, anaerobically sterilized dilution blanks (Anaerobe Systems AS-908). The colonic material was then inoculated into 96 well plates containing YCFAC media (Anaerobe Systems AS-680) or other suitable media (6.7 μL slurry into 1 mL total media). A test compound was added to an individual well to reach a final analyte concentration of 1 or 10 μM, and the material was mixed by pipetting. Sample was removed after set timepoints (0, 120, 240, 480, 1440, 2880 minutes after initiation of the assay), quenched with acetonitrile containing internal standard, and analyzed by LC/MS.
# [3] = Assay 1. Stability in Simulated Gastric Fluid (SGF); format: in vitro ADME; conditions: SGF pH 1.6 with pepsin, 1 μM, 37° C.
# Protocol: Assay 1. Stability of conjugates in Simulated Gastric Fluid (SGF). This assay was used to assess the stability of an acylated cinnamic acid in a stomach.
# Medium was prepared by dissolving 2 g of sodium chloride in 0.6 L in ultrapure water (MilliQ®, Millipore Sigma, Darmstadt, Germany). The pH was adjusted to 1.6 with 1N hydrochloric acid, and the volume was then adjusted to 1 L with purified water.
# 60 mg FaSSIF powder (Biorelevant™, London, UK) were dissolved in 500 mL buffer (above). Pepsin was added (0.1 mg/mL) (Millipore Sigma, Darmstadt, Germany), and the solution was stirred. The resulting SGF media were used fresh for each experiment.
# A test compound was dissolved in DMSO stock to 1 mM. An aliquot of the DMSO stock solution was removed and diluted in the SGF Media in 15 mL falcon tubes to generate a total compound concentration of 1 μM. A 1 mL aliquot was immediately removed and diluted once with 1 volume of acetonitrile for T0 timepoint. The mixture was sealed and mixed at 37° C. in an incubator. Aliquots (1 mL) were removed at regular intervals and immediately quenched by the addition of 1 volume of acetonitrile. The resulting samples were analyzed by LC/MS to determine degradation rates in SGF.
# C57BL/6 mice = experiment: In vivo evaluation in mice fed a high-fat diet (84-day study); set-up: species or system mouse
# Protocol: Animals were allowed free access to food and drinking water for the entire study. Animals were weighed on a regular basis, and food and drinking water consumption monitored. Plasma and stool samples were collected at the beginning of the study and 42 days into the study. Additional blood was drawn from fasted mice 58 days into the study. Insulin tolerance tests were performed 72 or 73 days into the study. Following an approximate 4 h fast, 0.5 Units/kg insulin was administered intraperitoneally. Blood was collected pre-insulin challenge (t=0) and at t=15, 30, 60, 90, and 120 min following insulin challenge. Oral glucose tolerance tests were performed 79 or 80 days into the study. Following an approximate 4 h fast, 2 g/kg glucose was administered by oral gavage. Blood was collected pre-insulin challenge (t=0) and at t=15, 30, 60, 90, and 120 min following glucose challenge. At the end of the study, body weight, food consumption, blood glucose, serum ALT levels, serum AST levels, serum cholesterol (total cholesterol. HDL, and LDL levels), serum triglycerides levels, liver triglyceride levels, liver cholesterol levels, liver weight, subcutaneous fat pad weight, and epididymal fat pad weight were measured in all mice.
# mouse myocyte = experiment: Mouse myocyte lipolysis assay; format: cell-based; conditions: differentiated myocytes
# Protocol: Cells were obtained from ATCC and cultured in Dulbecco's Modified Eagle's medium (DMEM) containing 20% fetal bovine serum and 1% penicillin/streptomycin at 37° C. in an incubator with 5% CO2. Once the cells became confluent, they were seeded into a tissue culture treated 96 well plate. The next day, the medium containing DMEM with 2% equine serum was used to start differentiation. Table 2 lists the tested compounds including those that reduced the release of glycerol (+, ++, or +++). The lipolytic rate of muscle triglycerides is associated with metabolic dysfunction including insulin resistance and liver steatosis. Compounds that lower lipolysis of adipocytes may improve metabolic function including improving insulin sensitivity and reducing liver steatosis, thus improving outcomes in patients with diabetes mellitus (e.g., prediabetes or type II diabetes) obesity, and hyperlipidemia.
# [4] = system: differentiated mouse 3T3-L1 cells; experiment: Mouse adipocyte lipolysis assay (Lipolysis Assay Kit, ZenBio); format: cell-based; conditions: 24 hours post-treatment, 3T3-L1 adipocytes
# Protocol: Mouse 3T3-L1 cells were obtained from ATCC and cultured in Dulbecco's Modified Eagle's medium (DMEM) containing 10% newborn calf serum (NCS) and penicillin/streptomycin(P/S) at 37° C. in an incubator with 5% CO2. Once the cells became confluent, they were seeded into a tissue culture treated 96 well plate. Then, differentiation was initiated by using DMEM containing 10% fetal bovine serum, P/S, IBMX, dexamethasone, and insulin. After 14 days of differentiation, cells were treated with compounds of interest. After 24 hours post-treatment, the cell viability was assessed using CellTiter-Glo Luminescent Cell Viability Assay from Promega, and lipolysis was determined using Lipolysis Assay Kit from ZenBio. […] Table 1 lists the compounds that reduced the release of free fatty acids and glycerol (+, ++, or +++). The lipolytic rate of white adipose tissue is associated with metabolic dysfunction including insulin resistance and liver steatosis. Compounds that lower lipolysis of adipocytes may improve metabolic function including improving insulin sensitivity and reducing liver steatosis, thus improving outcomes in subjects with diabetes mellitus (e.g., prediabetes or type II diabetes), obesity, and hyperlipidemia.
compound,measurement,setting,value
"CC(=O)Oc1ccc(/C=C/C(=O)O)cc1OC(C)=O [compound 3, diacetyl caffeic acid]",Assay 2 (SIF) (% @ Remaining 4 hours),[1],A (<25% of the tested compound remaining)
same,Assay 3 (% Remaining at 24 h),[2],A (<25% of the tested compound remaining)
same,Assay 1 (SGF) (% Remaining @ 1 hour),[3],C (>75% of the tested compound remaining)
CC(=O)O[C@@H]1OC[C@@H](OC(C)=O)[C@H](OC(C)=O)[C@H]1OC(C)=O [compound 4],"metabolic markers (e.g., glucose tolerance, insulin tolerance, cholesterol levels)",C57BL/6 mice; mice fed high-fat diet + test article,improve metabolic markers
same,weight loss,"C57BL/6 mice; mice fed high-fat diet, over the study",induce weight loss
CC(=O)O [Acetic acid],Free glycerol % DMSO,mouse myocyte; 1 mM,= (90% >< 100%: =)
same,Free glycerol % DMSO,mouse myocyte; 3 mM,= (90% >< 100%: =)
same,Lipolysis Free Fatty Acids % DMSO,[4]; 1 mM,++ (50 >≤ 70%: ++)
same,Lipolysis Glycerol % change,[4]; 1 mM,+ (70% >≤90%: +)
same,Lipolysis Free Fatty Acids % DMSO,[4]; 3 mM,++ (50 >≤ 70%: ++)
same,Lipolysis Glycerol % change,[4]; 3 mM,+ (70% >≤90%: +)
CCCC(=O)O [Butyric acid],Free glycerol % DMSO,mouse myocyte; 3 mM,+++ (50%<: +++)
same,Lipolysis Free Fatty Acids % DMSO,[4]; 3 mM,++ (50 >≤ 70%: ++)
same,Lipolysis Glycerol % change,[4]; 3 mM,++ (50 >≤ 70%: ++)
CCC(=O)O [Propionic acid],Free glycerol % DMSO,mouse myocyte; 3 mM,++ (50 >< 70%: ++)
same,Lipolysis Free Fatty Acids % DMSO,[4]; 3 mM,+++ (50%≤: +++)
same,Lipolysis Glycerol % change,[4]; 3 mM,++ (50 >≤ 70%: ++)
O=C(O)/C=C/c1ccc(O)c(O)c1 [Caffeic acid],Free glycerol % DMSO,mouse myocyte; 100 μM,+++ (50%<: +++)
same,Lipolysis Free Fatty Acids % DMSO,[4]; 100 μM,+++ (50%≤: +++)
same,Lipolysis Glycerol % change,[4]; 100 μM,+++ (50%≤: +++)
